ChEMBL document CHEMBL1201862, “PubChem BioAssay data set” (2004)
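1) Cells in 96-well plates. 2) Compound, 48 h, 5 concentrations. 3) Linear interpolation between surrounding doses. 4) Unreached endpoint = highest concentration. Here, GI50 denotes the concentration required for 50% inhibition of growth.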 Activity calls are given as the source filed them. No stated cut-off is given here; in the data, active = GI50 up to about 1.1 µM and inactive = higher.

Legend:
Experiment in all cases: DTP human tumour cell line panel, 48 h
BT-549 = tested on: BT-549
DLD-1 = tested on: DLD-1
HOP-18 = tested on: HOP-18
KM-20L2 = tested on: KM-20L2
M19-MEL = tested on: M19-MEL
SNB-78 = tested on: SNB-78
XF498 = tested on: XF498
DMS-114 = tested on: DMS-114
RXF 631 = tested on: RXF 631

Row | Compound | GI50 (BT-549) | GI50 (DLD-1) | GI50 (HOP-18) | GI50 (KM-20L2) | GI50 (M19-MEL) | GI50 (SNB-78) | further results
1 | N/C(S)=N/N=C/c1ncccc1O | 3.47 µM (inactive) | 2.26 µM (inactive) | 2.25 µM (inactive) | 1.39 µM (inactive) | 1.91 µM (inactive) | 81.8 µM (inactive) | GI50 (XF498): 1.51 µM (inactive)
2 | N=C(N)NC(=N)Nc1ccc(S(=O)(=O)O)cc1 | > 100 µM (inactive) |  |  |  |  |  | 
3 | CO[C@@H]1[C@H](O)CC[C@]2(CO2)[C@H]1[C@@]1(C)O[C@@H]1CC=C(C)C | > 200 µM (inactive) |  |  |  |  |  | 
4 | COc1ccc(-c2cn3ccsc3n2)cc1 |  | > 100 µM (inactive) | > 100 µM (inactive) | 57.8 µM (inactive) | > 100 µM (inactive) | > 100 µM (inactive) | GI50 (DMS-114): 47.8 µM (inactive)
5 | c1cncc(CSc2ncnc3[nH]cnc23)c1 | > 100 µM (inactive) |  |  |  |  |  | 
6 | Cc1[nH]c2ccccc2c1-c1cc(-c2cc(-c3c(C)[nH]c4ccccc34)nc(N)n2)nc(N)n1 | > 100 µM (inactive) |  |  |  |  |  | 
7 | O=C(CC(=O)Nc1ccccc1O)Nc1ccccc1O |  | 12.5 µM (inactive) | 19.4 µM (inactive) | 22.9 µM (inactive) | 15 µM (inactive) | > 100 µM (inactive) | GI50 (DMS-114): 1.75 µM (inactive); GI50 (RXF 631): 9.79 µM (inactive)
8 | O=C1C(NS(=O)(=O)c2ccccc2)=C(N(Cc2ccccc2)Cc2ccccc2)C(=O)c2ccccc21 | 16.9 µM (inactive) |  |  |  |  |  | 
9 | c1cc2c3ccsc3c3sccc3c2s1 | > 100 µM (inactive) |  |  |  |  |  | 
10 | C1CSCCSCCS1 | > 100 µM (inactive) |  |  |  |  |  | 
11 | CC(=O)c1ccc(NC(=O)/C(Cc2ccccn2)=N/NC(=O)C[N+](C)(C)C)cc1 |  | > 100 µM (inactive) | > 100 µM (inactive) | > 100 µM (inactive) | > 100 µM (inactive) | > 100 µM (inactive) | GI50 (DMS-114): > 100 µM (inactive); GI50 (RXF 631): > 100 µM (inactive)
12 | FC(F)(F)P1C2C=CC(CC2)C1(F)F (centres undefined) |  | > 100 µM (inactive) | > 100 µM (inactive) | > 100 µM (inactive) | > 100 µM (inactive) | > 100 µM (inactive) | GI50 (DMS-114): > 100 µM (inactive); GI50 (XF498): > 100 µM (inactive)
13 | O=C(NCc1cccc2ccccc12)N/N=C\c1ccc(Cl)cc1 | > 100 µM (inactive) |  |  |  |  |  | 
14 | CC(C)OCN1COCN/C1=N/C#N |  | 26.4 µM (inactive) | > 100 µM (inactive) | > 100 µM (inactive) | > 100 µM (inactive) |  | GI50 (DMS-114): 58.6 µM (inactive); GI50 (RXF 631): > 100 µM (inactive)
15 | CN(C)/C=N/C1CCC(C(C)(C)C)CC1 (centres undefined) | 18.5 µM (inactive) |  |  |  |  |  | 
16 | Cc1nnc2n(c1=O)CCCN2C | > 100 µM (inactive) |  |  |  |  |  | 
17 | COc1cc(C(=O)OCCn2[nH]c(-c3ccc(Cl)cc3)nc2=S)cc(OC)c1OC | 31.3 µM (inactive) |  |  |  |  |  | 
18 | NC(=O)C#CC#CC#CCO |  | 0.807 µM (active) | 1.82 µM (inactive) | 3.89 µM (inactive) | 1.81 µM (inactive) | 2.86 µM (inactive) | GI50 (DMS-114): 2.05 µM (inactive)
19 | COc1c2cc(C(C)(C)C)cc1CSCc1cc(C(C)(C)C)cc(c1OC)CCCCC2 | 21.6 µM (inactive) |  |  |  |  |  | 
20 | COC(=O)CCC(=O)C(C#N)c1ccc(Cl)cc1Cl (centres undefined) |  | > 100 µM (inactive) |  | > 100 µM (inactive) | > 100 µM (inactive) | > 100 µM (inactive) | GI50 (RXF 631): > 100 µM (inactive); GI50 (XF498): > 100 µM (inactive)
21 | CCOC(=O)NC(=O)c1cn(CCCOC(=O)CCCCCCCCCCC(=O)OCCCn2cc(C(=O)NC(=O)OCC)c(=O)[nH]c2=O)c(=O)[nH]c1=O |  | > 100 µM (inactive) | > 100 µM (inactive) | > 100 µM (inactive) | > 100 µM (inactive) | > 100 µM (inactive) | GI50 (RXF 631): 37.3 µM (inactive); GI50 (XF498): > 100 µM (inactive)
22 | CCOP(=O)(CC1CC(O)(CNc2cc(Cl)nc(N)n2)C1)OCC (centres undefined) | > 100 µM (inactive) |  |  |  |  |  | 
23 | CC(C)OP(=O)(OC(C)C)/C(N)=N/Nc1ccc([N+](=O)[O-])cc1 |  | > 100 µM (inactive) |  | > 100 µM (inactive) | > 100 µM (inactive) | 50.7 µM (inactive) | GI50 (DMS-114): 57.8 µM (inactive); GI50 (XF498): 23.5 µM (inactive)
24 | CN(C)/C=N\c1nc(=O)n(C2CCC(CO)O2)cc1F (centres undefined) |  | > 100 µM (inactive) | > 100 µM (inactive) | > 100 µM (inactive) |  | 95.9 µM (inactive) | GI50 (XF498): > 100 µM (inactive)
25 | O=C1OS2(OC(=O)c3cccc4cccc2c34)c2ccccc21 (centres undefined) | > 100 µM (inactive) |  |  |  |  |  | 
26 | CN1C(c2ccccc2)=CC(=O)C(O)=C(c2ccccc2)S1(=O)=O | > 100 µM (inactive) |  |  |  |  |  | 
27 | Nc1ccc2c(O)cc(O)nc2n1 | > 100 µM (inactive) |  |  |  |  |  | 
28 | Cc1cc2sc(C)[n+](CCCOS(=O)(=O)[O-])c2cc1C | > 100 µM (inactive) |  |  |  |  |  | 
29 | CC(C(=O)ON1C(=O)CCC1=O)c1ccc(C(=O)c2ccccc2)s1 (centres undefined) | > 100 µM (inactive) |  |  |  |  |  | 
30 | CCOC(=O)C1=C(C#N)S(=O)(=O)c2c(oc(C)c2C)N1 | > 100 µM (inactive) |  |  |  |  |  | 
